From US20250235501A1, “Methods and Compositions for Treating or Preventing Neurological Injury or Neurological Disorders” (University of Connecticut, priority 2024, published 2025)

Test system: NMDARs (GluN1a, GluN2a, GluN2b)
Assay: Surface expression of NMDARs in HEK293T cells co-transfected with NMDARs and TRPM2 (WB)
Format: cell-based, human
Details: 10 μM peptide overnight; NMDARs/TRPM2 vs NMDARs/EGFP
Description: FIGS. 4K-4N show the surface expression of NMDARs in HEK-293T cells co-transfected with TRPM2 or EGFP with the treatment of PKC activator PMA (FIG. 4K) and inhibitor Stausporine (FIG. 4L). Membrane (Mem) and cytocol (Cyto) NMDARs were analyzed and averaged from 3 independent experiments with 1 μM PMA treatment (FIG. 4N) or 1 μM Stausporine treatment (FIG. 4L) for overnight. Pan-cadherin and β-tubulin were loading controls for membrane and cytosol protein, respectively (*, p<0.05, **, p<0.01, ***, p<0.001, unpaired t-test, mean±SEM, n=3/group).
FIGS. 5C-5F effects of TAT-EE3 on surface expression of NMDARs. HEK293T cells co-transfected with NMDARs with TRPM2 (+M2) or EGFP vector (Con) were treated with 10 μM TAT-SC (FIG. 5C) or TAT-EE3 (FIG. 5D) overnight. Membrane (Mem) and cytosol (Cyto) proteins of NMDARs in TAT-SC (FIG. 5E) and TAT-EE3 (FIG. 5F) treated groups were assessed by WBs and analyzed in reference to Pan-cadherin or β-tubulin (**, p<0.01, ***, p<0.001, unpaired t-test, mean±SEM). All the results were replicated in at least 3 independent experiments.
Pan-cadherin and β-tubulin were used as loading control for membrane and cytosolic protein extraction.
were ordered from GenScript Biotech, and dissolved in PBS to make a stock concentration at 10 mM. HEK-293T cells or isolated neurons were treated with TAT-SC or TAT-EE3 at a concentration of 10 μM for at least 8 h prior to use. Mice were injected with TAT-SC or TAT-EE3 intraperitoneally (ip) at a dose of 100 nmol/kg.
HEK293T cells were cultured in Dulbecco's Modified Eagle's medium (DMEM) (Thermal Fisher Scientific, 12100-038) supplemented with 10% BGS (HyClone, SH30541.03) and 0.5% penicillin/streptomycin (Thermal Fisher Scientific, 15140-122) at 37° C. and 5% CO2. 8 h prior to transfection, culture medium was replaced with DMEM supplemented only with 2.5% BGS. Cells were transfected when at a confluence about 80-90% using Lipofectamine® 3000 Transfection Kit (Thermal Fisher Scientific, 2232162) based on instruction.
NP-40/Triton lysis buffer ([…], 1% Triton™ X-100, 150 mM NaCl, 1 mM EDTA, 50 mM Tris, pH=8.0) containing proteinase inhibitors and phosphatase inhibitors was used to lyse both cultured cells and frozen brain tissue. Surface protein was extracted using Pierce® Cell Surface Protein Isolation Kit (Thermal Fisher Scientific, 89881) in transfected HEK-293T cells, and using ProteoExtract™ Native Membrane Protein Extraction Kit (Calbiochem, 444810) in brain tissue based on instructions. […] Protein concentration was measured using Pierce™ Rapid Gold BCA Protein Assay Kit.
30-50 μg of total protein was loaded and separated proteins were transferred to Nitrocellulose membranes. […] Band intensity was quantified using ImageJ software and normalized with appropriate loading controls.

TAT-EE3: membrane permeable disrupting peptide, sequence YGRKKRRQRRREEDTDSSEEMLALAEE (SEQ ID NO: 4)
enhancement of NMDAR surface expression by TRPM2: eliminated the enhancement
